From patent US10729675B2, “Gossypol isatin schiff base compounds with antitumor activities and a method of preparing the same” (SHAANXI UNIVERSITY OF SCIENCE AND TECHNOLOGY, priority 2018, dated 2020) come the findings set out here.

In general, melting point refers to the temperature, or range, at which the solid turns liquid.

Data set [1] has as its system human gastric cancer cells (SGC-7901). Kind of data set: tumor cell proliferation inhibition test, MTT method, SGC-7901. Format: cell-based. The following applies: SGC-7901 cells, 48 hours treatment, read-out: Half Inhibitory Concentration IC50 SGC-7901. As for the experimental part:
(§1) The compounds of the present invention were subjected to tumor cell proliferation inhibition test, and conventional MTT method was used.
(§2) Cell lines: human hepatoma cells (HepG2), human lung cancer cells (A-549), human gastric cancer cells (SGC-7901). The culture medium was DMEM+15% NBS+double antibody.
(§3) Sample solution preparation: after dissolving with DMSO (Merck), PBS (−) was added to obtain 100 μmol/L solution or homogeneous suspension. The solution was diluted with PBS (−) in DMSO to a final concentration of 0.1, 1, 10, 20, 40, 60, 80, 100 μmol/L.
(§4) Gossypol was used as control solution, prepared under the same condition.
(§5) Cell culture: adherent growth Tumor cells were cultured in 1640 medium containing 10% inactivated neonatal bovine serum and penicillin, streptomycin (1 million U/L), placed in carbon dioxide incubator at 37° C., 5% CO2, and saturated humidity. Cells were treated serially passaged 2-3 times. The first culture was washed with PBS 2 times, and digested with trypsin. Fresh culture medium was added evenly, cells were adjusted to a appropriate concentration and transferred into a new culture flask. Cell in an exponential phase were chosen for the tests.
(§6) Experimental Principle: Living cells mitochondria in the dehydrogenase can reduce yellow MTT to water-insoluble blue-violet product MT (MTT formazan), deposited in the cells. The amount of production is proportional to the number of living cells. […] DMSO can dissolve blue violet crystals, and the color depth is proportional to the amount contained, so the absorbance measured by the microplate reader can reflect the cell viability.
(§7) Methods: The exponential phase cells were digested and counted and seeded in 96-well plates at a density of 2×10^4/mL at 100 μl per well. After 24 hours of incubation, the cells to be tested were treated with 0.1, 1, 10, 20, 40, 60, 80, 100 μmol/L of the compounds. Each experimental group had 5 wells in each concentration, and the culture medium containing 0.4% DMSO was used as control. After 48 hours, the supernatant was discarded, and 100 μl of MTT ((2-(4,5-dimethyl-2-thiazolyl)-3,5-diphenyl-2H-tetrazole hydrobromide) (1 mg/mL) was added to each well. After another 4 hours, the supernatant was discarded, and 100 μl of DMSO was added to each well. After mixing, the absorbance was measured at 570 nm using a microplate reader. An IC50 calculation software was used to determine the half inhibitory concentration (IC50).
Background: Formazan colour is commonly taken as a measure of viable cells.

The subject of data set [2] is human lung cancer cells (A-549). The data set is described as follows: tumor cell proliferation inhibition test, MTT method, A-549. Format: cell-based. The following applies: A549 cells, 48 hours treatment, read-out: Half Inhibitory Concentration IC50 A549. The method, then: as §1, §2, §3, §4, §5, §6, §7
The test system of data set [3] is human hepatoma cells (HepG2). The data set is described as follows: tumor cell proliferation inhibition test, MTT method, HepG2. The note with it: 48 hours treatment, read-out: Half Inhibitory Concentration IC50 HepG2. Format: cell-based. As for the experimental part: as §1, §2, §3, §4, §5, §6, §7
In data set [4] the test system is HepG2, A-549, SGC-7901 tumor cells. Kind of data set: anti-tumor activity test, MTT method, summary over the three cell lines tested. Format: cell-based, human. The method, then: as §1, §2, §3, §4
Cell culture: adherent growth Tumor cells were cultured in 1640 medium containing 10% inactivated neonatal bovine serum and penicillin, streptomycin (1 million U/L), placed in carbon dioxide incubator at 37° C., 5% CO2, and saturated humidity. Cells were treated serially passaged 2-3 times. The first culture was washed with PBS 2 times, and digested with trypsin. Fresh culture medium was added evenly, cells were adjusted to a appropriate concentration and transferred into a new culture flask. […]
Experimental Principle: Living cells mitochondria in the dehydrogenase can reduce yellow MTT to water-insoluble blue-violet product MT (MTT formazan), deposited in the cells. […] DMSO can dissolve blue violet crystals, and the color depth is proportional to the amount contained, so the absorbance measured by the microplate reader can reflect the cell viability.
Methods: The exponential phase cells were digested and counted and seeded in 96-well plates at a density of 2×10^4/mL at 100 μl per well. […] After 48 hours, the supernatant was discarded, and 100 μl of MTT ((2-(4,5-dimethyl-2-thiazolyl)-3,5-diphenyl-2H-tetrazole hydrobromide) (1 mg/mL) was added to each well. After another 4 hours, the supernatant was discarded, and 100 μl of DMSO was added to each well. After mixing, the absorbance was measured at 570 nm using a microplate reader. An IC50 calculation software was used to determine the half inhibitory concentration (IC50).

The compound `Cc1ccc2c(c1)/C(=N/N=C/c1c(O)c(O)c(C(C)C)c3cc(C)c(-c4c(C)cc5c(C(C)C)c(O)c(O)c(/C=N/N=C6/C(=O)Nc7ccc(C)cc76)c5c4O)c(O)c13)C(=O)N2` [Compound 1, (3Z,3′E)-3,3′-(((1E,1′E)-(1,1′,6,6′,7,7′-hexahydroxy-5,5′-diisopropyl-3,3′-dimethyl-[2,2′-binaphthalene]-8,8′-diyl)bis(methanylylidene))bis(hydrazine-2,1-diylidene))bis(5-methylindolin-2-one)] registered a melting point of 187.5 °C. For the same compound, in data set [1], the IC50 is over 100 µM. For the same compound, in data set [2], the IC50 is over 100 µM. The IC50 in data set [3] was over 100 µM.

In turn, `Cc1cc2c(C(C)C)c(O)c(O)c(/C=N/N=C3\C(=O)N(C(C)C)c4ccc(Cl)cc43)c2c(O)c1-c1c(C)cc2c(C(C)C)c(O)c(O)c(/C=N/N=C3/C(=O)N(C(C)C)c4ccc(Cl)cc43)c2c1O` [Compound 6, (3Z,3′E)-3,3′-(((1E,1′E)-(1,1′,6,6′,7,7′-hexahydroxy-5,5′-diisopropyl-3,3′-dimethyl-[2,2′-binaphthalene]-8,8′-diyl)bis(methanylylidene))bis(hydrazine-2,1-diylidene))bis(5-chloro-1-isopropylindolin-2-one)] came in with a melting point of 216.3 °C. The IC50 in data set [1] is over 100 µM. For the same compound, the IC50 in data set [2] turned out to be 66.5 ± 2.53 µM. For the same compound, the IC50 in data set [3] is over 100 µM.

`Cc1cc2c(C(C)C)c(O)c(O)c(/C=N/N=C3\C(=O)N(Cc4ccccc4)c4ccc(Cl)cc43)c2c(O)c1-c1c(C)cc2c(C(C)C)c(O)c(O)c(/C=N/N=C3/C(=O)N(Cc4ccccc4)c4ccc(Cl)cc43)c2c1O` [Compound 7, (3Z,3′E)-3,3′-(((1E, 1′E)-(1,1′,6,6′,7,7′-hexahydroxy-5,5′-diisopropyl-3,3′-dimethyl-[2,2′-binaphthalene]-8,8′-diyl)bis(methanylylidene))bis(hydrazine-2,1-diylidene))bis(1-benzyl-5-chloroindolin-2-one)]: in data set [4], the “antitumor activities (in words)” value was “good activities”. Also, the IC50 in data set [1] stood at 12.5 ± 1.93 µM; in data set [2], 16.3 ± 1.21 µM; in data set [3] it was 14.7 ± 1.12 µM.

In the case of `Cc1cc2c(C(C)C)c(O)c(O)c(/C=N/N=C3\C(=O)Nc4ccc(Cl)cc43)c2c(O)c1-c1c(C)cc2c(C(C)C)c(O)c(O)c(/C=N/N=C3/C(=O)Nc4ccc(Cl)cc43)c2c1O` [Compound 2, (3Z,3′E)-3,3′-(((1E,1′E)-(1,1′,6,6′,7,7′-hexahydroxy-5,5′-diisopropyl-3,3′-dimethyl-[2,2′-binaphthalene]-8,8′-diyl)bis(methanylylidene))bis(hydrazine-2,1-diylidene))bis(5-chloroindolin-2-one)], the melting point was determined as 190.7 °C. The IC50 in data set [1] is over 100 µM. Moreover, the IC50 in data set [2] is 68.3 ± 2.15 µM. Besides, the IC50 in data set [3] is 29.4 ± 2.1 µM.

Take `Cc1cc2c(C(C)C)c(O)c(O)c(/C=N/N=C3\C(=O)N(C)c4ccccc43)c2c(O)c1-c1c(C)cc2c(C(C)C)c(O)c(O)c(/C=N/N=C3/C(=O)N(C)c4ccccc43)c2c1O` [Compound 3, (3Z,3′E)-3,3′-(((1E, 1′E)-(1,1′,6,6′,7,7′-hexahydroxy-5,5′-diisopropyl-3,3′-dimethyl-[2,2′-binaphthalene]-8,8′-diyl)bis(methanylylidene))bis(hydrazine-2,1-diylidene))bis(1-methylindolin-2-one)]: in data set [4], the “antitumor activities (in words)” value is on record as “excellent antitumor activities”. In addition, the IC50 in data set [1] was found to be 16.6 ± 1.46 µM; in data set [2], 7.87 ± 0.91 µM; in data set [3], 8.67 ± 0.74 µM.

The compound `Cc1cc2c(C(C)C)c(O)c(O)c(/C=N/N=C3\C(=O)N(C)c4ccc(Cl)cc43)c2c(O)c1-c1c(C)cc2c(C(C)C)c(O)c(O)c(/C=N/N=C3/C(=O)N(C)c4ccc(Cl)cc43)c2c1O` [Compound 4, (3Z,3′E)-3,3′-(((1E, 1′E)-(1,1′,6,6′,7,7′-hexahydroxy-5,5′-diisopropyl-3,3′-dimethyl-[2,2′-binaphthalene]-8,8′-diyl)bis(methanylylidene))bis(hydrazine-2,1-diylidene))bis(5-chloro-1-methylindolin-2-one)] showed a melting point of 204.3 °C. Further, the IC50 in data set [1] is over 100 µM. Besides, in data set [2], the IC50 was over 100 µM. Further, the IC50 in data set [3] was over 100 µM.

For `Cc1cc2c(C(C)C)c(O)c(O)c(/C=N/N=C3\C(=O)N(Cc4ccccc4)c4ccccc43)c2c(O)c1-c1c(C)cc2c(C(C)C)c(O)c(O)c(/C=N/N=C3/C(=O)N(Cc4ccccc4)c4ccccc43)c2c1O` [Compound 8, (3Z,3′E)-3,3′-(((1E, 1′E)-(1,1′,6,6′,7,7′-hexahydroxy-5,5′-diisopropyl-3,3′-dimethyl-[2,2′-binaphthalene]-8,8′-diyl)bis(methanylylidene))bis(hydrazine-2,1-diylidene))bis(1-benzylindolin-2-one)], the melting point came out at 219.9 °C. The IC50 in data set [1] worked out at 88.8 ± 3.02 µM. Besides, the IC50 in data set [2] is over 100 µM. Further, the IC50 in data set [3] is over 100 µM.

As to `CCN1C(=O)/C(=N\N=C\c2c(O)c(O)c(C(C)C)c3cc(C)c(-c4c(C)cc5c(C(C)C)c(O)c(O)c(/C=N/N=C6/C(=O)N(CC)c7ccc(Cl)cc76)c5c4O)c(O)c23)c2cc(Cl)ccc21` [Compound 5, (3Z,3′E)-3,3′-(((1E, 1′E)-(1,1′,6,6′,7,7′-hexahydroxy-5,5′-diisopropyl-3,3′-dimethyl-[2,2′-binaphthalene]-8,8′-diyl)bis(methanylylidene))bis(hydrazine-2,1-diylidene))bis(5-chloro-1-ethylindolin-2-one)], the “antitumor activities (in words)” value in data set [4] is listed as “good activities”. The results for the IC50 in data set [1], in data set [2] and in data set [3] were 13.7 ± 1.11 µM, 19.3 ± 1.62 µM and 8.92 ± 0.59 µM, respectively.
